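1) Cells in 96-well plates. 2) Compound, 48 h, 5 concentrations. 3) Linear interpolation between surrounding doses. 4) Unreached endpoint = highest concentration. GI50: concentration for 50% inhibition of growth. At the TGI there is no net growth.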
Tests used:
Assay in all cases: NCI tumour cell line growth inhibition, 48 h
786-0 renal = system: 786-0 renal
A498 renal = system: A498 renal
A549 NSCLC = system: A549 NSCLC
ACHN renal = system: ACHN renal
BT-549 breast = system: BT-549 breast
CCRF-CEM leukemia = system: CCRF-CEM leukemia
COLO 205 colon = system: COLO 205 colon
DU-145 prostate = system: DU-145 prostate
EKVX NSCLC = system: EKVX NSCLC
HCC-2998 colon = system: HCC-2998 colon
HCT-116 colon = system: HCT-116 colon
HCT-15 colon = system: HCT-15 colon
HL-60(TB) leukemia = system: HL-60(TB) leukemia
HOP-62 NSCLC = system: HOP-62 NSCLC
HOP-92 NSCLC = system: HOP-92 NSCLC
HS 578T breast = system: HS 578T breast
HT29 colon = system: HT29 colon
IGROV1 ovarian = system: IGROV1 ovarian
K-562 leukemia = system: K-562 leukemia
KM12 colon = system: KM12 colon
LOX IMVI melanoma = system: LOX IMVI melanoma
M14 melanoma = system: M14 melanoma
MALME-3M melanoma = system: MALME-3M melanoma
MCF7 breast = system: MCF7 breast
MDA-MB-231 breast = system: MDA-MB-231 breast
MDA-MB-435 = system: MDA-MB-435
MOLT-4 leukemia = system: MOLT-4 leukemia
NCI-H226 lung = system: NCI-H226 lung
NCI-H23 lung = system: NCI-H23 lung

COc1ccc(C[n+]2c3ccccc3n3c4ccc(N)cc4ccc32)c(OC)c1OC
GI50 (786-0 renal): 34.9 µM | TGI (786-0 renal): > 100 µM | GI50 (A498 renal): 17.5 µM | TGI (A498 renal): 61.9 µM | GI50 (A549 NSCLC): 19.3 µM | TGI (A549 NSCLC): > 100 µM | GI50 (ACHN renal): 36.2 µM | TGI (ACHN renal): > 100 µM | GI50 (BT-549 breast): 2.42 µM | TGI (BT-549 breast): 16.5 µM | GI50 (CCRF-CEM leukemia): 4.28 µM | TGI (CCRF-CEM leukemia): 45.7 µM | GI50 (COLO 205 colon): 1.9 µM | TGI (COLO 205 colon): 5.65 µM | GI50 (DU-145 prostate): 6.42 µM | TGI (DU-145 prostate): 78.1 µM | GI50 (EKVX NSCLC): 3.08 µM | TGI (EKVX NSCLC): 58.9 µM | GI50 (HCC-2998 colon): 4 µM | TGI (HCC-2998 colon): 24.7 µM | GI50 (HCT-116 colon): 12.6 µM | TGI (HCT-116 colon): 83.7 µM | GI50 (HCT-15 colon): 82.1 µM | TGI (HCT-15 colon): > 100 µM | GI50 (HL-60(TB) leukemia): 3.09 µM | TGI (HL-60(TB) leukemia): 11.7 µM | GI50 (HOP-62 NSCLC): 7.4 µM | TGI (HOP-62 NSCLC): 33.1 µM | GI50 (HOP-92 NSCLC): 0.571 µM | TGI (HOP-92 NSCLC): 3.77 µM | GI50 (HS 578T breast): 5.81 µM | TGI (HS 578T breast): 35.2 µM | GI50 (HT29 colon): 4.63 µM | TGI (HT29 colon): 33.2 µM | GI50 (IGROV1 ovarian): 4.58 µM | TGI (IGROV1 ovarian): 40 µM | GI50 (K-562 leukemia): 4.87 µM | TGI (K-562 leukemia): > 100 µM | GI50 (KM12 colon): 2.41 µM | TGI (KM12 colon): 13.7 µM | GI50 (LOX IMVI melanoma): 10.7 µM | TGI (LOX IMVI melanoma): 36.3 µM | GI50 (M14 melanoma): 14.9 µM | TGI (M14 melanoma): 33.3 µM | GI50 (MALME-3M melanoma): 2.08 µM | TGI (MALME-3M melanoma): 7.48 µM | GI50 (MCF7 breast): 1.11 µM | TGI (MCF7 breast): 26.1 µM | GI50 (MDA-MB-231 breast): 9.25 µM | TGI (MDA-MB-231 breast): 31.7 µM | GI50 (MDA-MB-435): 2.92 µM | TGI (MDA-MB-435): 13.5 µM | GI50 (MOLT-4 leukemia): 3.14 µM | TGI (MOLT-4 leukemia): 35.2 µM | GI50 (NCI-H226 lung): 12.8 µM | TGI (NCI-H226 lung): 60.8 µM | GI50 (NCI-H23 lung): 1.99 µM
